Results reported in patent publication US9955692B2, “Pyrazoles for controlling invertebrate pests” (BASF SE, priority 2014, dated 2018).

Legend:
Assay type in all cases: in vivo
[1] = tested on: Cotton aphid (Aphis gossypii, mixed life stages); assay: Cotton aphid spray test on cotton plants; settings: 120 h, aphid mortality determined after 5 days, read-out: mortality in comparison with untreated controls
Description: (§1) The active compounds were formulated in cyclohexanone as a 10,000 ppm solution supplied in 1.3 ml ABgene® tubes. These tubes were inserted into an automated electrostatic sprayer equipped with an atomizing nozzle and they served as stock solutions for which lower dilutions were made in 1:1 (vol:vol) water:aceton. A nonionic surfactant (Kinetic®) was included in the solution at a volume of 0.01% (v/v).
Cotton plants at the cotyledon stage were infested with aphids prior to treatment by placing a heavily infested leaf from the main aphid colony on top of each cotyledon. Aphids were allowed to transfer overnight to accomplish an infestation of 80-100 aphids per plant and the host leaf was removed. The infested plants were then sprayed by an automated electrostatic plant sprayer equipped with an atomizing spray nozzle. The plants were dried in the sprayer fume hood, removed from the sprayer, and then maintained in a growth room under fluorescent lighting in a 24-hr photoperiod at 25° C. and 20-40% relative humidity. Aphid mortality on the treated plants, relative to mortality on untreated control plants, was determined after 5 days.

[2] = tested on: Green peach aphid (Myzus persicae); assay: Green peach aphid spray test on bell pepper plants; settings: 120 h, aphid mortality determined after 5 days, read-out: mortality in comparison with untreated controls
Description: as §1
Bell pepper plants at the first true-leaf stage were infested prior to treatment by placing heavily infested leaves from the main colony on top of the treatment plants. Aphids were allowed to transfer overnight to accomplish an infestation of 30-50 aphids per plant and the host leaves were removed. The infested plants were then sprayed by an automated electrostatic plant sprayer equipped with an atomizing spray nozzle. The plants were dried in the sprayer fume hood, removed, and then maintained in a growth room under fluorescent lighting in a 24 hour photoperiod at 25° C. and 20-40% relative humidity. Aphid mortality on the treated plants, relative to mortality on untreated control plants, was determined after 5 days.

[3] = tested on: Vetch aphid (Megoura viciae); assay: Vetch aphid bean leaf disk microtiter plate test; settings: foliar, 144 h, 6 days, assessed on the basis of vital, reproduced aphids, read-out: mortality in comparison with untreated controls
Description: The active compounds were formulated in 3:1 (vol:vol) water:DMSO with different concentrations of formulated compounds.
Bean leaf disks were placed into microtiterplates filled with 0.8% agar-agar and 2.5 ppm OPUS™. The leaf disks were sprayed with 2.5 μl of the test solution and 5 to 8 adult aphids were placed into the microtiter plates which were then closed and kept at 23±1° C. and 50±5% relative humidity under fluorescent light for 6 days. Mortality was assessed on the basis of vital, reproduced aphids. Aphid mortality and fecundity was then visually assessed.

[4] = tested on: Silverleaf whitefly (Bemisia argentifolii, adult); assay: Silverleaf whitefly test on sprayed cotton plants; settings: 72 h, mortality assessed 3 days after treatment, read-out: mortality in comparison with untreated controls
Description: as §1
Cotton plants at the cotyledon stage (one plant per pot) were sprayed by an automated electrostatic plant sprayer equipped with an atomizing spray nozzle. The plants were dried in the sprayer fume hood and then removed from the sprayer. Each pot was placed into a plastic cup and 10 to 12 whitefly adults (approximately 3-5 days […]) were introduced. The insects were collected using an aspirator and 0.6 cm, nontoxic Tygon® tubing (R-3603) connected to a barrier pipette tip. The tip, containing the collected insects, was then gently inserted into the soil containing the treated plant, allowing insects to crawl out of the tip to reach the foliage for feeding. Cups were covered with a reusable screened lid (150-micron mesh polyester screen PeCap from Tetko, Inc.). […] Mortality was assessed 3 days after treatment, compared to untreated control plants.

[5] = tested on: Cowpea aphid (Aphis craccivora); assay: Cowpea aphid spray test on potted cowpea plants; settings: population reduction assessed after 24, 72 and 120 hours, read-out: mortality in comparison with untreated controls
Description: If not otherwise specified the test solutions were prepared as follows:
The active compound was dissolved at the desired concentration in a mixture of 1:1 (vol:vol) distilled water:aceton. The test solution was prepared at the day of use and in general at concentrations of ppm (wt/vol).
Potted cowpea plants colonized with 100-150 aphids of various stages were sprayed after the pest population had been recorded. Population reduction was assessed after 24, 72, and 120 hours.

CCC(C)=NOCC(C)n1ncc(C(=O)N(CC)c2ccnnc2)c1C (single isomer, unassigned) [I-9, N-ethyl-5-methyl-1-[1-methyl-2-[1-methyl-propylideneamino]oxy-ethyl]-N-pyridazin-4-yl-pyrazole-4-carboxamide]
≥ 75%: mortality at 300 ppm [1] | mortality at 300 ppm [2] | mortality at 2500 ppm [3] | mortality at 300 ppm [4] | mortality at 500 ppm [5]
